Measured values as given in the NIST ThermoML archive (doi:10.1016/j.jct.2013.10.025).

Assay: xn = mol fraction of the nth substance listed
Conditions: 101 kPa, Liquid; for viscosity: Capillary tube (Ostwald / Ubbelohde) method; for speed of sound: Sing-around technique in a fixed-path interferometer; for mass density: Vibrating tube method

C1CCOC1 [tetrahydrofuran] + CCCCCCCCO
Conditions | mass density [kg/m3] | speed of sound [m/s] | viscosity [mPa·s]
298.15 K, x1 = 0.0541 | 823.522 | 1344.5 | 6.305
298.15 K, x1 = 0.1044 | 825.135 | 1341.3 | 5.403
298.15 K, x1 = 0.1535 | 826.78 | 1337.5 | 4.698
298.15 K, x1 = 0.205 | 828.609 | 1333.5 | 4.025
298.15 K, x1 = 0.2574 | 830.564 | 1329.8 | 3.477
298.15 K, x1 = 0.3054 | 832.449 | 1326.5 | 2.996
298.15 K, x1 = 0.4003 | 836.541 | 1319.6 | 2.307
298.15 K, x1 = 0.5004 | 841.464 | 1312.2 | 1.747
298.15 K, x1 = 0.6111 | 847.802 | 1302.9 | 1.271
298.15 K, x1 = 0.7032 | 853.984 | 1295.5 | 0.996
298.15 K, x1 = 0.8116 | 862.541 | 1287.9 | 0.747
298.15 K, x1 = 0.9048 | 871.362 | 1281.7 | 0.589
303.15 K, x1 = 0.0541 | 819.992 | 1327.7 | 5.227
303.15 K, x1 = 0.1044 | 821.552 | 1324.3 | 4.562
303.15 K, x1 = 0.1535 | 823.145 | 1320.4 | 3.988
303.15 K, x1 = 0.205 | 824.915 | 1316 | 3.395
303.15 K, x1 = 0.2574 | 826.809 | 1312.4 | 3.014
303.15 K, x1 = 0.3054 | 828.634 | 1308.7 | 2.602
303.15 K, x1 = 0.4003 | 832.585 | 1301.4 | 2.089
303.15 K, x1 = 0.5004 | 837.343 | 1293.4 | 1.566
303.15 K, x1 = 0.6111 | 843.471 | 1283.4 | 1.173
303.15 K, x1 = 0.7032 | 849.444 | 1275.5 | 0.931
303.15 K, x1 = 0.8116 | 857.718 | 1266.9 | 0.715
303.15 K, x1 = 0.9048 | 866.235 | 1259.7 | 0.566
308.15 K, x1 = 0.0541 | 816.44 | 1310.7 | 4.208
308.15 K, x1 = 0.1044 | 817.948 | 1307.3 | 3.709
308.15 K, x1 = 0.1535 | 819.488 | 1303 | 3.217
308.15 K, x1 = 0.205 | 821.202 | 1298.8 | 2.779
308.15 K, x1 = 0.2574 | 823.029 | 1294.7 | 2.46
308.15 K, x1 = 0.3054 | 824.796 | 1290.9 | 2.176
308.15 K, x1 = 0.4003 | 828.614 | 1283.1 | 1.748
308.15 K, x1 = 0.5004 | 833.216 | 1274.6 | 1.348
308.15 K, x1 = 0.6111 | 839.116 | 1264.1 | 1.014
308.15 K, x1 = 0.7032 | 844.874 | 1255.2 | 0.819
308.15 K, x1 = 0.8116 | 852.874 | 1244.9 | 0.632
308.15 K, x1 = 0.9048 | 861.083 | 1237 | 0.514
313.15 K, x1 = 0.0541 | 812.862 | 1294.2 | –
313.15 K, x1 = 0.1044 | 814.315 | 1290.6 | –
313.15 K, x1 = 0.1535 | 815.803 | 1286.2 | –
313.15 K, x1 = 0.205 | 817.465 | 1282 | –
313.15 K, x1 = 0.2574 | 819.222 | 1277.6 | –
313.15 K, x1 = 0.3054 | 820.932 | 1273.8 | –
313.15 K, x1 = 0.4003 | 824.625 | 1265.5 | –
313.15 K, x1 = 0.5004 | 829.064 | 1256.5 | –
313.15 K, x1 = 0.6111 | 834.743 | 1245.4 | –
313.15 K, x1 = 0.7032 | 840.294 | 1236.1 | –
313.15 K, x1 = 0.8116 | 848 | 1225 | –
313.15 K, x1 = 0.9048 | 855.903 | 1216.3 | –
